Here are results for 17 molecules from patent publication US11028090B2 (Dong Wha Pharm. Co., Ltd., priority 2017, dated 2021).

Each structure is given as a SMILES string. Where two headings read alike, the source gives them in different places. Some results are limits rather than exact numbers.

Assay [1] deals with BRD4 (BD1+BD2) bromodomain (Homo sapiens (Human), UniProt O60885). In words: BRD4 binding inhibition (AlphaScreen, GST-BRD4 vs tetraacetylated histone H4 peptide). The procedure, abridged:
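AlphaScreen read after 30 min dark incubation at room temperature with glutathione acceptor/streptavidin donor beads (10 μg/ml each). The beads were added to compound plus 100 nM biotin-H4 (K5,8,12,16-acetyl) peptide and 100 nM GST-BRD4 BD1+BD2 in pH 7.4 HEPES/Tween/BSA/DTT buffer.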

In assay [2] the test system is acute myelogenous leukemia cells (MV-4-11 cells). In words: Cytotoxicity to acute myelogenous leukemia cells (MV-4-11 cells), CCK-8. The note with it: Homo sapiens, MV4-11, 72 h.
Method: The following experiment was performed to evaluate the cytotoxicity of [1,2,4]triazolo[4,3-a]quinoxaline derivative according to the present invention to acute myelogenous leukemia cells (MV-4-11 cells).
Acute myelogenous leukemia cells (MV-4-11 cells) were distributed in a 96 well plate at the density of 5×10^3 cells/well. The plated cells were treated with the compounds of the present invention dissolved in DMSO at the different concentrations ranging from 0.01 μM to 10 μM. 72 hours later, the activities of the compounds were determined using CCK-8 reagent.
The mark [3] stands for this setting: GST-BRD4 (BD1+BD2) / biotinylated acetyl-histone H4 (Lys5,8,12,16) peptide, read-out: IC50, BRD4 binding inhibition.
[4] abbreviates: GST-BRD4 (BD1+BD2) vs biotinylated acetyl-histone H4 peptide, AlphaScreen, read-out: BRD4 IC50.
The mark [5] stands for this setting: read-out: IC50, cytotoxicity against acute myelogenous leukemia cells.
Setting [6] is: read-out: MV-4-11 Cytotoxicity IC50.

`Cc1nnc2c(NCCCCNC(=O)Cc3cccs3)nc3cc4c(cc3n12)OCCO4` [Example 185, N-[4-(1-methyl-8,9-dihydro-7,10-dioxa-2,3,5,11b-tetraaza-cyclopenta[a]anthracene-4-ylamino)-butyl]-2-thiophene-2-yl-acetamide]: the IC50 is no more than 50 nM in assay [1] (setting [3]), 19 nM in assay [1] (setting [4]), no more than 200 nM in assay [2] (setting [5]) and 20 nM in assay [2] (setting [6]).

Regarding `Cc1nnc2c(NCCCCNC(=O)c3ccccc3Cl)nc3cc4c(cc3n12)OCCO4` [Example 187, 2-chloro-N-[4-(1-methyl-8,9-dihydro-7,10-dioxa-2,3,5,11b-tetraaza-cyclopenta[a]anthracene-4-ylamino)-butyl]-benzamide], the IC50 is no more than 50 nM in assay [1] (setting [3]), 24 nM in assay [1] (setting [4]), no more than 200 nM in assay [2] (setting [5]) and 110 nM in assay [2] (setting [6]).

Turning to `Cc1nnc2c(NCCCCNC(=O)OC(C)C)nc3cc4c(cc3n12)OCCO4` [Example 188, [4-(1-methyl-8,9-dihydro-7,10-dioxa-2,3,5,11b-tetraaza-cyclopenta[a]anthracene-4-ylamino)-butyl]-carbamic acid isopropylester], the IC50 in assay [1] (setting [3]) was no more than 50 nM; in assay [1] (setting [4]), 25 nM; in assay [2] (setting [5]), no more than 200 nM; in assay [2] (setting [6]), 170 nM.

As for `Cc1nnc2c(NCCCCNC(=O)OCC(C)C)nc3cc4c(cc3n12)OCCO4` [Example 189, [4-(1-methyl-8,9-dihydro-7,10-dioxa-2,3,5,11b-tetraaza-cyclopenta[a]anthracene-4-ylamino)-butyl]-carbamic acid isobutylester], the IC50 in assay [1] (setting [3]) is no more than 50 nM; in assay [1] (setting [4]), 17 nM; in assay [2] (setting [5]), no more than 200 nM; in assay [2] (setting [6]) it was 110 nM.

With `CCC(C)CC(=O)NCCCCNc1nc2c(OC)c(OC)c(OC)cc2n2c(C)nnc12` (stereo not shown) [Example 196, 3-methyl-pentanoic acid-[4-(6,7,8-trimethoxy-1-methyl-[1,2,4]triazolo[4,3-a]quinoxaline-4-ylamino)-butyl]-amide], the half-maximal inhibitory concentration (IC50) in assay [1] (setting [3]) was no more than 50 nM; in assay [1] (setting [4]), 32 nM; in assay [2] (setting [6]) it was 550 nM.

`COC(=O)c1ccc2c(c1)nc(NCCCCNC(=O)CC(C)C)c1nnc(C)n12` [Example 199, 1-methyl-4-[4-(3-methyl-butyrylamino)-butylamino]-[1,2,4]triazolo[4,3-a]quinoxaline-7-carboxylic acid methylester]: the IC50 in assay [1] (setting [4]) was 58 nM; in assay [2] (setting [5]), no more than 200 nM; in assay [2] (setting [6]), 49 nM.

For `Cc1nnc2c(NCCCCNC(=O)CC(C)C)nc3cc(C(=O)Nc4ccccc4N)ccc3n12` [Example 215, 1-methyl-4-[4-(3-methyl-butyrylamino)-butylamino]-[1,2,4]triazolo[4,3-a]quinoxaline-7-carboxylic acid-(2-amino-phenyl)-amide], the IC50 was no more than 50 nM in assay [1] (setting [3]), 22 nM in assay [1] (setting [4]) and 276 nM in assay [2] (setting [6]).

For the molecule `Cc1ccc(NC(=O)c2ccc3c(c2)nc(NCCCCNC(=O)CC(C)C)c2nnc(C)n23)c(N)c1` [Example 216, 1-methyl-4-[4-(3-methyl-butyrylamino)-butylamino]-[1,2,4]triazolo[4,3-a]quinoxaline-7-carboxylic acid-(2-amino-4-methyl-phenyl)-amide], the half-inhibitory concentration (IC50) in assay [1] (setting [3]) is no more than 50 nM; in assay [1] (setting [4]) it was 31 nM; in assay [2] (setting [6]), 240 nM.

With `COc1cc(N)c(NC(=O)c2ccc3c(c2)nc(NCCCCNC(=O)CC(C)C)c2nnc(C)n23)cc1OC` [Example 217, 1-methyl-4-[4-(3-methyl-butyrylamino)-butylamino]-[1,2,4]triazolo[4,3-a]quinoxaline-7-carboxylic acid-(2-amino-4,5-dimethoxy-phenyl)-amide], the IC50 in assay [1] (setting [3]) is no more than 50 nM; in assay [1] (setting [4]), 16 nM; in assay [2] (setting [6]), 256 nM.

Consider `Cc1nnc2c(NCCCCNC(=O)OC(C)(C)C)nc3cc(-c4nc5ccccc5[nH]4)ccc3n12` [Example 218, {4-[7-(1H-benzoimidazole-2-yl)-1-methyl-[1,2,4]triazolo[4,3-a]quinoxaline-4-ylamino]-butyl}-carbamic acid-tert-butylester], for which the IC50 was no more than 50 nM in assay [1] (setting [3]), 25 nM in assay [1] (setting [4]) and 320 nM in assay [2] (setting [6]).

As for `Cc1ccc2[nH]c(-c3ccc4c(c3)nc(NCCCCNC(=O)OC(C)(C)C)c3nnc(C)n34)nc2c1` [Example 219, {4-[1-methyl-7-(5-methyl-1H-benzoimidazole-2-yl)-[1,2,4]triazolo[4,3-a]quinoxaline-4-ylamino]-butyl}-carbamic acid-tert-butylester], the values for the IC50 in assay [1] (setting [4]), in assay [2] (setting [5]) and in assay [2] (setting [6]) were 68 nM, no more than 200 nM and 79 nM, respectively.

As to `Cc1nnc2c(NCCCCNC(=O)OC(C)(C)C)nc3cc(-c4nc5ccccc5n4C)ccc3n12` [Example 220, {4-[1-methyl-7-(1-methyl-1H-benzoimidazole-2-yl)-[1,2,4]triazolo[4,3-a]quinoxaline-4-ylamino]-butyl}-carbamic acid-tert-butylester], the figures for the IC50 in assay [1] (setting [3]) and in assay [2] (setting [6]) were no more than 10 nM and 350 nM, respectively.

In the case of `Cc1nnc2c(NCCCCNC(=O)CC(C)C)nc3cc(-c4nc5ccccc5n4C)ccc3n12` [Example 222, 3-methyl-N-{4-[1-methyl-7-(1-methyl-1H-benzoimidazole-2-yl)-[1,2,4]triazolo[4,3-a]quinoxaline-4-ylamino]-butyl}-butyramide], the IC50 in assay [1] (setting [3]) is no more than 10 nM; in assay [1] (setting [4]), 1 nM; in assay [2] (setting [5]), no more than 200 nM; in assay [2] (setting [6]), 53 nM.

For the molecule `Cc1ccc2[nH]c(-c3ccc4c(c3)nc(NCCCCNC(=O)CC(C)C)c3nnc(C)n34)nc2c1` [Example 223, 3-methyl-N-{4-[1-methyl-7-(5-methyl-1H-benzoimidazole-2-yl)-[1,2,4]triazolo[4,3-a]quinoxaline-4-ylamino]-butyl}-butyramide], the IC50 in assay [1] (setting [3]) is no more than 50 nM; in assay [1] (setting [4]) it was 17 nM; in assay [2] (setting [5]), no more than 200 nM; in assay [2] (setting [6]), 14 nM.

Regarding `Cc1nnc2c(NCCCCNC(=O)CC(C)C)nc3cc(-c4nc5ccccc5[nH]4)ccc3n12` [Example 224, N-{4-[7-(1H-benzoimidazole-2-yl)-1-methyl-[1,2,4]triazolo[4,3-a]quinoxaline-4-ylamino]-butyl}-3-methyl-butyramide], the concentration for half-maximal inhibition (IC50) was no more than 50 nM in assay [1] (setting [3]), 13 nM in assay [1] (setting [4]), no more than 200 nM in assay [2] (setting [5]) and 3 nM in assay [2] (setting [6]).

On to `Cc1nnc2c(NCCCCNC(=O)[C@H](O)C(C)C)nc3cc(-c4nc5ccccc5[nH]4)ccc3n12` [Example 226, N-{4-[7-(1H-benzoimidazole-2-yl)-1-methyl-[1,2,4]triazolo[4,3-a]quinoxaline-4-ylamino]-butyl}-2-(R)-hydroxy-3-methyl-butyramide], for which the IC50 in assay [1] (setting [3]) is no more than 10 nM; in assay [1] (setting [4]), 4 nM; in assay [2] (setting [6]) it was 290 nM.

For `COc1cc2nc(-c3ccc4c(c3)nc(NCCCCNC(=O)CC(C)C)c3nnc(C)n34)[nH]c2cc1OC` [Example 227, N-{4-[7-(5,6-dimethoxy-1H-benzoimidazole-2-yl)-1-methyl-[1,2,4]triazolo[4,3-a]quinoxaline-4-ylamino]-butyl}-3-methyl-butyramide], the IC50 was no more than 10 nM in assay [1] (setting [3]), 1 nM in assay [1] (setting [4]), no more than 200 nM in assay [2] (setting [5]) and 39 nM in assay [2] (setting [6]).
